The values below come from patent US8633245B2, “PAI-1 inhibitor” (Institute of Medicinal Molecular Design, Inc., priority 2008, dated 2014).

The assay deals with T1, recombinant human PAI-1 (Homo sapiens, UniProt P05121).
T1 construct: purchased Molecular Innovations, Inc
As to the kind of experiment: Test Example 1: human PAI-1 inhibitory activity (tPA fluorogenic substrate, pH 7.5 Tris buffer). Format: biochemical. Conditions: Tris buffer. The protocol: 50 mM Tris, 150 mM NaCl, 10 μg/ml BSA, 0.01% Tween80 (SIGMA-ALDRICH Corporation)

T1 sequence (P05121 24-402): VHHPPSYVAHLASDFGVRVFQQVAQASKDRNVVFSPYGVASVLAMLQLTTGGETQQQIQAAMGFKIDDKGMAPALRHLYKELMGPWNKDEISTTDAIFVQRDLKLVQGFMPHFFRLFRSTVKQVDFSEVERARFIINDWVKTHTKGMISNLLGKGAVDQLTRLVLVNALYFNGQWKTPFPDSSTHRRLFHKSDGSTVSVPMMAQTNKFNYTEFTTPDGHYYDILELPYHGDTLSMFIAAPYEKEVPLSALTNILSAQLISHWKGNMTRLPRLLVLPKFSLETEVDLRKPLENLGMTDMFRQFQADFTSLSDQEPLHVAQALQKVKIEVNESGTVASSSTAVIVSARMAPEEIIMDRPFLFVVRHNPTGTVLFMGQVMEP

On to `CC(C)Oc1ccc(N(Cc2ccc(C(C)(C)C)cc2)C(=O)C(=O)O)c(-c2ccc(OC(F)(F)F)cc2)c1` [Compound 209], for which the “Inhibition Rate of PAI-1 Activity (%)” value runs as follows: (Compound Concentration 5 μM) 81%; (Compound Concentration 10 μM) 98%; (Compound Concentration 25 μM) 94%.

Consider `CCCOc1ccc(N(Cc2ccccc2)C(=O)C(=O)O)cc1-c1ccc(OC(F)(F)F)cc1` [Compound 210], for which the “Inhibition Rate of PAI-1 Activity (%)” value reads like this: (Compound Concentration 5 μM) 39%; (Compound Concentration 10 μM) 70%; (Compound Concentration 25 μM) 94%.

In the case of `CC(C)(C)c1ccc(CN(C(=O)C(=O)O)c2ccc(N3CCOCC3)c(-c3ccc(OC(F)(F)F)cc3)c2)cc1` [Compound 216], the “Inhibition Rate of PAI-1 Activity (%)” value (Compound Concentration 5 μM) is listed as 75%, the “Inhibition Rate of PAI-1 Activity (%)” value (Compound Concentration 10 μM) stood at 88% and the “Inhibition Rate of PAI-1 Activity (%)” value (Compound Concentration 25 μM) turned out to be 84%.

As to `CC(C)(C)c1ccc(CN(C(=O)C(=O)O)c2ccc(N3CCCCC3)c(-c3ccc(OC(F)(F)F)cc3)c2)cc1` [Compound 217], the “Inhibition Rate of PAI-1 Activity (%)” value (Compound Concentration 5 μM) came out at 86% and the “Inhibition Rate of PAI-1 Activity (%)” value (Compound Concentration 10 μM) is reported as 84%.

In the case of `CC(C)(C)Oc1ccc(N(Cc2ccc(C(C)(C)C)cc2)C(=O)C(=O)O)cc1-c1ccc(OC(F)(F)F)cc1` [Compound 218], the “Inhibition Rate of PAI-1 Activity (%)” value reads like this: (Compound Concentration 5 μM) 83%; (Compound Concentration 10 μM) 78%.

For `CC(C)(C)c1ccc(CN(C(=O)C(=O)O)c2ccc(N3CCCCC3=O)c(-c3ccc(OC(F)(F)F)cc3)c2)cc1` [Compound 219], the “Inhibition Rate of PAI-1 Activity (%)” value runs as follows: (Compound Concentration 5 μM) 33%; (Compound Concentration 10 μM) 58%; (Compound Concentration 25 μM) 86%.

For `CC(c1ccc(C(C)(C)C)cc1)N(C(=O)C(=O)O)c1ccc(-c2ccc(OC(F)(F)F)cc2)cc1` (centres unmarked) [Compound 220], the “Inhibition Rate of PAI-1 Activity (%)” value came out at 51% (Compound Concentration 5 μM), 86% (Compound Concentration 10 μM) and 89% (Compound Concentration 25 μM).

As to `O=C(O)C(=O)N(CCCc1ccccc1)c1ccc(-c2ccc(OC(F)(F)F)cc2)cc1` [Compound 224], the “Inhibition Rate of PAI-1 Activity (%)” value turned out to be 29% (Compound Concentration 5 μM), 63% (Compound Concentration 10 μM) and 86% (Compound Concentration 25 μM).

For `O=C(O)C(=O)N(CCCCc1ccccc1)c1ccc(-c2ccc(OC(F)(F)F)cc2)cc1` [Compound 225], the “Inhibition Rate of PAI-1 Activity (%)” value reads like this: (Compound Concentration 5 μM) 27%; (Compound Concentration 10 μM) 50%; (Compound Concentration 25 μM) 88%.

Turning to `O=C(O)C(=O)N(CCCCCc1ccccc1)c1ccc(-c2ccc(OC(F)(F)F)cc2)cc1` [Compound 228], the “Inhibition Rate of PAI-1 Activity (%)” value (Compound Concentration 5 μM) is 45%, the “Inhibition Rate of PAI-1 Activity (%)” value (Compound Concentration 10 μM) is recorded as 71% and the “Inhibition Rate of PAI-1 Activity (%)” value (Compound Concentration 25 μM) is 95%.

As for `CCCOc1ccc(N(CCCc2ccccc2)C(=O)C(=O)O)cc1-c1ccc(OC(F)(F)F)cc1` [Compound 229], the “Inhibition Rate of PAI-1 Activity (%)” value (Compound Concentration 5 μM) turned out to be 48%, the “Inhibition Rate of PAI-1 Activity (%)” value (Compound Concentration 10 μM) came to 80% and the “Inhibition Rate of PAI-1 Activity (%)” value (Compound Concentration 25 μM) is on record as 94%.

For `CCCOc1ccc(N(CCCc2ccccc2)C(=O)C(=O)O)c(-c2ccc(OC(F)(F)F)cc2)c1` [Compound 232], the “Inhibition Rate of PAI-1 Activity (%)” value is listed as 52% (Compound Concentration 5 μM), 82% (Compound Concentration 10 μM) and 96% (Compound Concentration 25 μM).

Regarding `CCCOc1ccc(-c2ccc(OC(F)(F)F)cc2)cc1N(CCCc1ccccc1)C(=O)C(=O)O` [Compound 234], the “Inhibition Rate of PAI-1 Activity (%)” value (Compound Concentration 5 μM) is 59%, the “Inhibition Rate of PAI-1 Activity (%)” value (Compound Concentration 10 μM) is on record as 83% and the “Inhibition Rate of PAI-1 Activity (%)” value (Compound Concentration 25 μM) amounted to 96%.

With `CCCCOc1ccc(-c2ccc(OC(F)(F)F)cc2)cc1N(CCCc1ccccc1)C(=O)C(=O)O` [Compound 235], the “Inhibition Rate of PAI-1 Activity (%)” value is, setting by setting: (Compound Concentration 5 μM) 66%; (Compound Concentration 10 μM) 89%; (Compound Concentration 25 μM) 93%.

With `CCCOc1ccc(-c2ccc(OC(F)(F)F)cc2)cc1N(CCCCc1ccccc1)C(=O)C(=O)O` [Compound 236], the “Inhibition Rate of PAI-1 Activity (%)” value is, setting by setting: (Compound Concentration 5 μM) 61%; (Compound Concentration 10 μM) 86%; (Compound Concentration 25 μM) 95%.

Take `CCC(CC)Oc1ccc(N(CCCc2ccccc2)C(=O)C(=O)O)c(-c2ccc(OC(F)(F)F)cc2)c1` [Compound 237]: the “Inhibition Rate of PAI-1 Activity (%)” value (Compound Concentration 5 μM) stood at 75% and the “Inhibition Rate of PAI-1 Activity (%)” value (Compound Concentration 10 μM) came to 92%.

As for `CC(C)Oc1ccc(N(CCCc2ccccc2)C(=O)C(=O)O)c(-c2ccc(OC(F)(F)F)cc2)c1` [Compound 239], the “Inhibition Rate of PAI-1 Activity (%)” value is 43% (Compound Concentration 5 μM), 80% (Compound Concentration 10 μM) and 98% (Compound Concentration 25 μM).

On to `CCCOc1ccc(N(CCCCc2ccccc2)C(=O)C(=O)O)cc1-c1ccc(OC(F)(F)F)cc1` [Compound 240], for which the “Inhibition Rate of PAI-1 Activity (%)” value is listed as 62% (Compound Concentration 5 μM), 91% (Compound Concentration 10 μM) and 95% (Compound Concentration 25 μM).

Regarding `CCCCCOc1ccc(-c2ccc(OC(F)(F)F)cc2)cc1N(CCCCCc1ccccc1)C(=O)C(=O)O` [Compound 242], the “Inhibition Rate of PAI-1 Activity (%)” value is, setting by setting: (Compound Concentration 5 μM) 88%; (Compound Concentration 10 μM) 94%.

On to `O=C(O)C(=O)N(CCCCc1ccccc1)c1ccc(N2CCOCC2)c(-c2ccc(OC(F)(F)F)cc2)c1` [Compound 243], for which the “Inhibition Rate of PAI-1 Activity (%)” value came to 42% (Compound Concentration 5 μM), 64% (Compound Concentration 10 μM) and 89% (Compound Concentration 25 μM).

Turning to `CCCCCOc1ccc(N(CCCCc2ccccc2)C(=O)C(=O)O)cc1-c1ccc(OC(F)(F)F)cc1` [Compound 244], the “Inhibition Rate of PAI-1 Activity (%)” value by setting is: (Compound Concentration 5 μM) 71%; (Compound Concentration 10 μM) 91%.

In the case of `CCCCCCOc1ccc(-c2ccc(OC(F)(F)F)cc2)cc1N(CCCCc1ccccc1)C(=O)C(=O)O` [Compound 245], the “Inhibition Rate of PAI-1 Activity (%)” value is 93% (Compound Concentration 5 μM) and 97% (Compound Concentration 10 μM).

For the compound `Cc1cc(N(C)C)c(-c2ccc(OC(F)(F)F)cc2)cc1N(CCCCc1ccccc1)C(=O)C(=O)O` [Compound 246], the “Inhibition Rate of PAI-1 Activity (%)” value by setting is: (Compound Concentration 5 μM) 79%; (Compound Concentration 10 μM) 96%.

As to `O=C(O)C(=O)N(CCCCc1ccccc1)c1ccc(N2CCCCC2)c(-c2ccc(OC(F)(F)F)cc2)c1` [Compound 247], the “Inhibition Rate of PAI-1 Activity (%)” value by setting is: (Compound Concentration 5 μM) 93%; (Compound Concentration 10 μM) 99%.

For `CC(C)Oc1ccc(N(CCCCc2ccccc2)C(=O)C(=O)O)cc1-c1ccc(OC(F)(F)F)cc1` [Compound 248], the “Inhibition Rate of PAI-1 Activity (%)” value (Compound Concentration 5 μM) is recorded as 60%, the “Inhibition Rate of PAI-1 Activity (%)” value (Compound Concentration 10 μM) amounted to 89% and the “Inhibition Rate of PAI-1 Activity (%)” value (Compound Concentration 25 μM) came to 96%.

Regarding `CC(C)(C)Oc1ccc(N(CCCCc2ccccc2)C(=O)C(=O)O)cc1-c1ccc(OC(F)(F)F)cc1` [Compound 249], the “Inhibition Rate of PAI-1 Activity (%)” value came to 68% (Compound Concentration 5 μM) and 89% (Compound Concentration 10 μM).

For the compound `O=C(O)C(=O)N(CCCCc1ccccc1)c1ccc(N2CCCCC2=O)c(-c2ccc(OC(F)(F)F)cc2)c1` [Compound 250], the “Inhibition Rate of PAI-1 Activity (%)” value is listed as 83% (Compound Concentration 5 μM) and 78% (Compound Concentration 10 μM).

`CCCCCCN(C(=O)C(=O)O)c1ccc(Oc2ccc(OC(F)(F)F)cc2)cc1` [Compound 252]: the “Inhibition Rate of PAI-1 Activity (%)” value was determined as 3% (Compound Concentration 5 μM), 6% (Compound Concentration 10 μM) and 34% (Compound Concentration 25 μM).

As to `O=C(O)C(=O)N(c1ccc(-c2ccc(OC(F)(F)F)cc2)cc1)C1CCCCC1` [Compound 253], the “Inhibition Rate of PAI-1 Activity (%)” value is, setting by setting: (Compound Concentration 5 μM) 9%; (Compound Concentration 10 μM) 16%; (Compound Concentration 25 μM) 36%.

Turning to `CCCCCN(C(=O)C(=O)O)c1ccc(-c2ccc(OC(F)(F)F)cc2)cc1` [Compound 254], the “Inhibition Rate of PAI-1 Activity (%)” value runs as follows: (Compound Concentration 5 μM) 3%; (Compound Concentration 10 μM) 9%; (Compound Concentration 25 μM) 31%.

For the compound `CC(C)(C)CN(C(=O)C(=O)O)c1ccc(-c2ccc(OC(F)(F)F)cc2)cc1` [Compound 255], the “Inhibition Rate of PAI-1 Activity (%)” value (Compound Concentration 5 μM) was determined as 2%, the “Inhibition Rate of PAI-1 Activity (%)” value (Compound Concentration 10 μM) was 8% and the “Inhibition Rate of PAI-1 Activity (%)” value (Compound Concentration 25 μM) turned out to be 23%.

As for `O=C(O)CCc1cc(OCc2ccc(OC(F)(F)F)cc2)ccc1OCc1ccc(OC(F)(F)F)cc1` [Compound 404], the “Inhibition Rate of PAI-1 Activity (%)” value reads like this: (Compound Concentration 5 μM) 14%; (Compound Concentration 10 μM) 31%; (Compound Concentration 25 μM) 84%.

`CC(C)(C)c1ccc(COc2cc(/C=C/C(=O)O)cc(Oc3ccc(OC(F)(F)F)cc3)c2)cc1` [Compound 409]: the “Inhibition Rate of PAI-1 Activity (%)” value is 26% (Compound Concentration 5 μM), 59% (Compound Concentration 10 μM) and 97% (Compound Concentration 25 μM).

For `CC(C)(C)c1ccc(COc2cc(CCC(=O)O)cc(Oc3ccc(OC(F)(F)F)cc3)c2)cc1` [Compound 410], the “Inhibition Rate of PAI-1 Activity (%)” value is, setting by setting: (Compound Concentration 5 μM) 37%; (Compound Concentration 10 μM) 71%; (Compound Concentration 25 μM) 98%.

With `CC(C)(C)c1ccc(COc2ccc(Nc3ccc(OC(F)(F)F)cc3)cc2CCC(=O)O)cc1` [Compound 412], the “Inhibition Rate of PAI-1 Activity (%)” value is, setting by setting: (Compound Concentration 5 μM) 22%; (Compound Concentration 10 μM) 46%; (Compound Concentration 25 μM) 92%.

As for `CC(C)(C)c1ccc(COc2ccc(OCc3ccc(OC(F)(F)F)cc3)cc2/C=C/C(=O)O)cc1` [Compound 413], the “Inhibition Rate of PAI-1 Activity (%)” value was 38% (Compound Concentration 5 μM), 66% (Compound Concentration 10 μM) and 84% (Compound Concentration 25 μM).

With `CC(C)(C)c1ccc(COc2ccc(OCc3ccc(OC(F)(F)F)cc3)cc2CCC(=O)O)cc1` [Compound 414], the “Inhibition Rate of PAI-1 Activity (%)” value (Compound Concentration 5 μM) turned out to be 33%, the “Inhibition Rate of PAI-1 Activity (%)” value (Compound Concentration 10 μM) turned out to be 67% and the “Inhibition Rate of PAI-1 Activity (%)” value (Compound Concentration 25 μM) is listed as 96%.

On to `CN(c1ccc(OC(F)(F)F)cc1)c1ccc(OCc2ccc(C(C)(C)C)cc2)c(CCC(=O)O)c1` [Compound 417], for which the “Inhibition Rate of PAI-1 Activity (%)” value was found to be 44% (Compound Concentration 5 μM), 79% (Compound Concentration 10 μM) and 98% (Compound Concentration 25 μM).
